Measurements published in DBAASP.
Values after ≈ are worked out from the molar mass of the structure shown. Blank lines part the entries; values can stand above or below the compound they belong to.

Columns and labels:
Test in all cases: ≥ marks a high value that may be exact or a test limit, other limits are often not marked, values filed in µg/mL are converted to µM
[1] = test system: Staphylococcus aureus
[2] = test system: Klebsiella pneumoniae
[3] = test system: Staphylococcus aureus ATCC 25923
[4] = test system: Enterobacter cloacae
[5] = test system: Escherichia coli ATCC 25922
[6] = test system: Pseudomonas aeruginosa ATCC 15442
[7] = test system: Citrobacter sp.
[8] = test system: Streptococcus pneumoniae
[9] = test system: Acinetobacter baumannii ATCC 15308
[10] = test system: Pseudomonas aeruginosa ATCC 10145
[11] = test system: Escherichia coli NCLM 2064
[12] = test system: Bacillus cereus NCLM 2156
[13] = test system: Vibrio cholerae PL91
[14] = test system: Staphylococcus aureus MRSA-15
[15] = test system: Klebsiella pneumoniae ATCC 700603
[16] = test system: Pseudomonas aeruginosa Q14-0208
[17] = test system: Acinetobacter baumannii ATCC 19606
[18] = test system: Enterococcus faecalis JH-2-2
[19] = test system: Campylobacter jejuni NCTC 11161
[20] = test system: Listeria monocytogenes NCTC 11994
[21] = test system: Campylobacter jejuni ATCC 33292
[22] = test system: Pseudomonas aeruginosa ATCC 27853
[23] = test system: Staphylococcus aureus RN4220
[24] = test system: Campylobacter jejuni
[25] = test system: Pseudomonas aeruginosa Q14-0890
[26] = test system: Pseudomonas aeruginosa Q12-0535
[27] = test system: Klebsiella pneumoniae Q14-0285
[28] = test system: Staphylococcus aureus ATCC 33591
[29] = test system: Salmonella typhimurium SL1344
[30] = test system: Klebsiella pneumoniae Q14-0095
[31] = test system: Escherichia coli
[32] = test system: Escherichia coli K-12
[33] = test system: Klebsiella pneumoniae NCTC 13442
[34] = test system: Staphylococcus aureus ATCC 6538
[35] = test system: Acinetobacter baumannii Q13-0717
[36] = test system: Campylobacter jejuni NCTC 11351
[37] = test system: Pseudomonas aeruginosa PAO1
[38] = test system: Staphylococcus aureus USA 300
[39] = test system: Staphylococcus aureus NCTC 12493
[40] = test system: Salmonella enterica subsp. enterica serovar Enteritidis ATCC 13076
[41] = test system: Serratia marcescens ATCC 21202
[42] = test system: Streptococcus pyogenes ATCC 19615
[43] = test system: Staphylococcus aureus ATCC 29213
[44] = test system: Bacillus cereus ATCC 11778

MIC [1]: 17.2 µM (≈ 31.2 µg/mL)
MIC [2]: > 138 µM
MIC [3]: 17.2 µM (≈ 31.2 µg/mL)
MIC [4]: ≥ 138 µM
MIC [5]: 17.2 µM (≈ 31.2 µg/mL)
MIC [6]: ≥ 34.5 µM
MIC [7]: ≥ 138 µM
MIC [8]: 17.2 µM (≈ 31.2 µg/mL)
MIC [9]: ≥ 69 µM
SMILES: CC[C@H](C)[C@H](NC(=O)[C@H](CC(C)C)NC(=O)CNC(=O)CNC(=O)[C@H](CC(C)C)NC(=O)[C@@H](N)Cc1ccccc1)C(=O)N[C@@H](CCCCN)C(=O)N1CCC[C@H]1C(=O)N[C@@H](Cc1c[nH]c2ccccc12)C(=O)N[C@@H](Cc1c[nH]c2ccccc12)C(=O)N1CCC[C@H]1C(=O)N[C@@H](Cc1c[nH]c2ccccc12)C(=O)N[C@@H](CCCN=C(N)N)C(=O)N[C@@H](CCCN=C(N)N)C(N)=O [FLGGLIKPWWPWRR]

MIC [10]: ≥ 34.1 µM
MIC [3]: > 51.1 µM
MIC [11]: 13.6 µM (≈ 40 µg/mL)
MIC [12]: ≥ 51.1 µM
SMILES: CC[C@H](C)[C@H](NC(=O)CN)C(=O)NCC(=O)N[C@@H](CO)C(=O)N[C@@H](CCSC)C(=O)N[C@@H](CC(C)C)C(=O)N[C@@H](CC(C)C)C(=O)NCC(=O)N[C@@H](CC(C)C)C(=O)N[C@@H](C)C(=O)N[C@@H](CCCCN)C(=O)N[C@@H](CC(N)=O)C(=O)N[C@H](C(=O)NCC(=O)N[C@@H](CCSC)C(=O)N[C@@H](CO)C(=O)N[C@@H](CC(C)C)C(=O)N[C@@H](CC(C)C)C(=O)N[C@@H](CC(N)=O)C(=O)N[C@@H](CCCCN)C(=O)N[C@@H](C)C(=O)N[C@@H](CCC(N)=O)C(=O)N[C@H]1CSSC[C@@H](C(=O)O)NC(=O)[C@H](CCCCN)NC(=O)CNC(=O)[C@H](CO)NC(=O)[C@H]([C@@H](C)CC)NC(=O)[C@H](CCCCN)NC1=O)C(C)C [GIGSMLLGLAKNVGMSLLNKAQCKISGKC]
MIC [13]: ≥ 51.1 µM

MIC [14]: 13.3 µM (≈ 32 µg/mL)
MIC [15]: 6.66 µM (≈ 16 µg/mL)
MIC [16]: 6.66 µM (≈ 16 µg/mL)
MIC [17]: 9.42 µM (≈ 22.6 µg/mL)
MIC [18]: 13.3 µM (≈ 32 µg/mL)
MIC [19]: 1.67 µM (≈ 4 µg/mL)
MIC [20]: 13.3 µM (≈ 32 µg/mL)
MIC [21]: 1.67 µM (≈ 4 µg/mL)
MIC [22]: 26.7 µM (≈ 64 µg/mL)
MIC [23]: 13.3 µM (≈ 32 µg/mL)
MIC [24]: 26.7 µM (≈ 64 µg/mL)
MIC [25]: 13.3 µM (≈ 32 µg/mL)
MIC [26]: 26.7 µM (≈ 64 µg/mL)
MIC [27]: 6.66 µM (≈ 16 µg/mL)
MIC [28]: 6.66 µM (≈ 16 µg/mL)
MIC [29]: 13.3 µM (≈ 32 µg/mL)
MIC [30]: 13.3 µM (≈ 32 µg/mL)
MIC [31]: 26.7 µM (≈ 64 µg/mL)
MIC [32]: 13.3 µM (≈ 32 µg/mL)
MIC [33]: 6.66 µM (≈ 16 µg/mL)
MIC [34]: 13.3 µM (≈ 32 µg/mL)
MIC [35]: 1.67 µM (≈ 4 µg/mL)
MIC [36]: 26.7 µM (≈ 64 µg/mL)
MIC [37]: 13.3 µM (≈ 32 µg/mL)
MIC [38]: 3.33 µM (≈ 8 µg/mL)
MIC [39]: 6.66 µM (≈ 16 µg/mL)
SMILES: CC[C@H](C)[C@H](NC(=O)[C@H](CCCCN)NC(=O)[C@H](CO)NC(=O)[C@H](Cc1c[nH]c2ccccc12)NC(=O)[C@H](CCCN=C(N)N)NC(=O)[C@H](CC(N)=O)NC(=O)[C@H](CCCN=C(N)N)NC(=O)[C@H](CCCN=C(N)N)NC(=O)[C@@H]1CCCN1C(=O)[C@@H](N)CC(C)C)C(=O)N[C@@H](Cc1c[nH]c2ccccc12)C(=O)N[C@@H](CCCCN)C(=O)N[C@@H](CCCCN)C(=O)N[C@H](C(=O)N[C@H](C(=O)N[C@H](C(=O)N[C@H](C(=O)N[C@@H](Cc1ccccc1)C(=O)N[C@@H](CO)C(=O)O)C(C)C)[C@@H](C)O)C(C)C)C(C)C [LPRRNRWSKIWKKVVTVFS]

MIC [15]: > 63.4 µM
MIC [22]: > 63.4 µM
MIC [40]: ≥ 63.4 µM
MIC [5]: > 63.4 µM
MIC [41]: ≥ 63.4 µM
MIC [42]: ≥ 63.4 µM
MIC [43]: > 63.4 µM
MIC [44]: ≥ 63.4 µM
SMILES: CC(C)C[C@H](NC(=O)[C@H](CC(C)C)NC(=O)[C@H](CC(=O)O)NC(=O)[C@H](CC(N)=O)NC(=O)[C@H](CC(C)C)NC(=O)[C@H](CC(C)C)NC(=O)[C@H](CC(N)=O)NC(=O)CNC(=O)[C@@H](NC(=O)[C@H](CC(C)C)NC(=O)[C@@H]1CCCN1C(=O)[C@H](CC(C)C)NC(=O)[C@@H](N)C(C)C)C(C)C)C(=O)NCC(=O)N[C@@H](CCCCN)C(=O)O [VLPLVGNLLNDLLGK]
